Patent US11142525B2 (Pfizer Inc., priority 2018, dated 2021)

The compounds below were run against human full-length recombinant HPK1 (Homo sapiens (Human), UniProt Q92918) (assay: HPK1 biochemical enzyme assay, microfluidic mobility shift assay (MSA)). Conditions: HPK1 mobility shift assay; read-out: HPK1 Enzyme Assay_Ki.
Procedure: HPK1 enzyme inhibition was measured using a microfluidic mobility shift assay (MSA). […] The reactions were conducted for 60 min at 37° C., stopped by the addition of 50 μL of 0.015 M EDTA, pH 8, and the extent of reactions (˜15-20% conversion with no inhibitor) was determined after electrophoretic separation of the fluorescently labeled peptide substrate and phosphorylated product on an LabChip EZ Reader II (PerkinElmer, Inc., Waltham, Mass.). […]

Chain of human full-length recombinant HPK1 (Q92918 whole entry): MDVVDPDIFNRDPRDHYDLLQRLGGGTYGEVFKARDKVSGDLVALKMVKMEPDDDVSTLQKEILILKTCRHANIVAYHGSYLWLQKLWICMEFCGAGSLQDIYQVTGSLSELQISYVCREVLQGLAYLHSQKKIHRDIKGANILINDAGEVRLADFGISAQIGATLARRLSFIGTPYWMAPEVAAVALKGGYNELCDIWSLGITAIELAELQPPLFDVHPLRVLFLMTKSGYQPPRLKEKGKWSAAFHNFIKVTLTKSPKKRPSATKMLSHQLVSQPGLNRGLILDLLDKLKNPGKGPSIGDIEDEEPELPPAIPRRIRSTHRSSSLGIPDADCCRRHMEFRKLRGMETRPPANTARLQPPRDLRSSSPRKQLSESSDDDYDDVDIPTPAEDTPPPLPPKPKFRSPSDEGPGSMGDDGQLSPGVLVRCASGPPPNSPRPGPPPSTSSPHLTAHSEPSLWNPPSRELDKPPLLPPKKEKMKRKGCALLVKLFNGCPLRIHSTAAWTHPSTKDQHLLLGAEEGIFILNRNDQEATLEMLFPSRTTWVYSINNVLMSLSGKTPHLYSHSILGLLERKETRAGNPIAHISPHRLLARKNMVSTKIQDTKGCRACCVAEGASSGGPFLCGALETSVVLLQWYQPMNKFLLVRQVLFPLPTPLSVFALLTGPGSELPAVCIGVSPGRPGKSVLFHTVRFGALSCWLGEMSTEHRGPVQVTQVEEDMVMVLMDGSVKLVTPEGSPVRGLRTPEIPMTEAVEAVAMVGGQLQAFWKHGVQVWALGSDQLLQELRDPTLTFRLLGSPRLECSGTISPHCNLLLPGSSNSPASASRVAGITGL

| Structure (SMILES) | Ki |
| --- | --- |
| CCC(CC)n1cnnc1-c1cccc(N2Cc3c(cc(N4[C@H](C)CC[C@H]4C)nc3CN)C2=O)n1 [Example 119, 4-(aminomethyl)-6-[(2R,5R)-2,5-dimethylpyrrolidin-1-yl]-2-{6-[4-(pentan-3-yl)-4H-1,2,4-triazol-3-yl]pyridin-2-yl}-2,3-dihydro-1H-pyrrolo[3,4-c]pyridin-1-one] | 0.52 nM |
| CCC(CC(F)(F)F)n1cnnc1-c1cccc(N2Cc3c(cc(C4(C)CC4)nc3CNC)C2=O)n1 (single isomer, unassigned) [Example 180] | 25.1 nM |
| CNCc1nc(C2(C)CC2)cc2c1CN(c1cccc(-c3nncn3C3CCCC3)n1)C2=O [Example 179] | 0.47 nM |
| CNCc1nc(N(C)C)cc2c1CN(c1cccc(-c3nncn3[C@@H](C)C(C)C)n1)C2=O [Example 178] | 0.17 nM |
| Cc1nnc(-c2cccc(N3Cc4c(cc(C5(C)CC5)nc4CN)C3=O)n2)n1C1CCC1 [Example 188] | 41 nM |
| CCNc1cc2c(c(CNC)n1)CN(c1cccc(-c3nncn3C(C)C)n1)C2=O [Example 77, 6-(ethylamino)-4-[(methylamino)methyl]-2-{6-[4-(propan-2-yl)-4H-1,2,4-triazol-3-yl]pyridin-2-yl}-2,3-dihydro-1H-pyrrolo[3,4-c]pyridin-1-one] | 0.68 nM |
| CC[C@H](CO)n1cnnc1-c1cccc(N2Cc3c(cc(C4(C)CC4)nc3CNC)C2=O)n1 (single isomer, unassigned) [Example 183] | 0.35 nM |

Further lines, results first:

| Ki | Structure (SMILES) |
| --- | --- |
| 1.15 nM | CC[C@@H](CO)n1cnnc1-c1cccc(N2Cc3c(cc(C4(C)CC4)nc3CNC)C2=O)n1 (single isomer, unassigned) [Example 184] |
| 1.91 nM | CCCn1c(CC)nnc1-c1cccc(N2Cc3c(cc(N4CCC[C@H]4C)nc3CN)C2=O)n1 [Example 186] |
| 0.37 nM | CNCc1nc(N(C)C)cc2c1CN(c1cccc(-c3nncn3[C@H](C)C(C)C)n1)C2=O [Example 182] |
| 0.13 nM | CCC(CC(F)(F)F)n1cnnc1-c1cccc(N2Cc3c(cc(C4(C)CC4)nc3CNC)C2=O)n1 (single isomer, unassigned) [Example 181] |
| 0.83 nM | CCCn1cnnc1-c1cccc(N2Cc3c(cc(N(CC)C(C)C)nc3CNC)C2=O)n1 [Example 99, 6-[ethyl(propan-2-yl)amino]-4-[(methylamino)methyl]-2-[6-(4-propyl-4H-1,2,4-triazol-3-yl)pyridin-2-yl]-2,3-dihydro-1H-pyrrolo[3,4-c]pyridin-1-one] |
| 26 nM | CNCc1nc(C2(C)CC2)cc2c1CN(c1cccc(-c3nnc(C)n3C3CCC3)n1)C2=O [Example 187] |

Same assay, conditions: mobility shift assay; 75 μM ATP; Morrison equation, tight-binding competitive inhibition; read-out: HPK1 Enzyme Assay_Ki

| Structure (SMILES) | Ki |
| --- | --- |
| CNCc1nc(C2CC2)cc2c1CN(c1cccc(N3C(=O)OC[C@@H]3C)n1)C2=O [Example 40, 6-cyclopropyl-4-[(methylamino)methyl]-2-{6-[(4S)-4-methyl-2-oxo-1,3-oxazolidin-3-yl]pyridin-2-yl}-2,3-dihydro-1H-pyrrolo[3,4-c]pyridin-1-one] | 0.81 nM |
| CNCc1nc(N2[C@H](C)C[C@H]2C)cc2c1CN(c1cccc(-c3nncn3C(C)C)n1)C2=O [Example 3, 6-[(2R,4R)-2,4-dimethylazetidin-1-yl]-4-[(methylamino)methyl]-2-{6-[4-(propan-2-yl)-4H-1,2,4-triazol-3-yl]pyridin-2-yl}-2,3-dihydro-1H-pyrrolo[3,4-c]pyridin-1-one] | 0.77 nM |
| CNCc1nc(N2[C@H]3CC[C@@H]2CC3)cc2c1CN(c1cccc(-c3nncn3C(C)C)n1)C2=O [Example 25, 6-[(1s,4s)-7-azabicyclo[2.2.1]hept-7-yl]-4-[(methylamino)methyl]-2-{6-[4-(propan-2-yl)-4H-1,2,4-triazol-3-yl]pyridin-2-yl}-2,3-dihydro-1H-pyrrolo[3,4-c]pyridin-1-one] | 1 nM |
| CC(C)n1cnnc1-c1cccc(N2Cc3c(cc(C4CC4)nc3CN)C2=O)n1 [Example 31, 4-(aminomethyl)-6-cyclopropyl-2-{6-[4-(propan-2-yl)-4H-1,2,4-triazol-3-yl]pyridin-2-yl}-2,3-dihydro-1H-pyrrolo[3,4-c]pyridin-1-one] | 0.66 nM |
| CNCc1nccc2c1CN(c1cccc(-c3nncn3C(C)C)n1)C2=O [Example 23, 4-[(methylamino)methyl]-2-{6-[4-(propan-2-yl)-4H-1,2,4-triazol-3-yl]pyridin-2-yl}-2,3-dihydro-1H-pyrrolo[3,4-c]pyridin-1-one] | 140 nM |
| CNCc1nc(N2[C@H](C)CC[C@@H]2C)cc2c1CN(c1cccc(-c3nncn3C(C)C)n1)C2=O [Example 27, 6-[(2R,5S)-2,5-dimethylpyrrolidin-1-yl]-4-[(methylamino)methyl]-2-{6-[4-(propan-2-yl)-4H-1,2,4-triazol-3-yl]pyridin-2-yl}-2,3-dihydro-1H-pyrrolo[3,4-c]pyridin-1-one] | 0.19 nM |
| CCCn1cnnc1-c1cccc(N2Cc3c(cc(N(C)C(C)C)nc3CNC)C2=O)n1 [Example 63, 4-[(methylamino)methyl]-6-[methyl(propan-2-yl)amino]-2-[6-(4-propyl-4H-1,2,4-triazol-3-yl)pyridin-2-yl]-2,3-dihydro-1H-pyrrolo[3,4-c]pyridin-1-one] | < 0.09 nM |

Next, values leading:

| Ki | Structure (SMILES) |
| --- | --- |
| 89.9 nM | CNCc1nc(C(F)(F)F)cc2c1CN(c1cccc(-c3nncn3C(C)C)n1)C2=O [Example 52, 4-[(methylamino)methyl]-2-{6-[4-(propan-2-yl)-4H-1,2,4-triazol-3-yl]pyridin-2-yl}-6-(trifluoromethyl)-2,3-dihydro-1H-pyrrolo[3,4-c]pyridin-1-one] |
| 1.29 nM | CCc1nnc(-c2cccc(N3Cc4c(cc(N(C)C(C)C)nc4CNC)C3=O)n2)n1CC [Example 67, 2-[6-(4,5-diethyl-4H-1,2,4-triazol-3-yl)pyridin-2-yl]-4-[(methylamino)methyl]-6-[methyl(propan-2-yl)amino]-2,3-dihydro-1H-pyrrolo[3,4-c]pyridin-1-one] |
| < 0.06 nM | CCCn1cnnc1-c1cccc(N2Cc3c(cc(N4CCC[C@H]4C)nc3CNC)C2=O)n1 [Example 55, 4-[(methylamino)methyl]-6-[(2R)-2-methylpyrrolidin-1-yl]-2-[6-(4-propyl-4H-1,2,4-triazol-3-yl)pyridin-2-yl]-2,3-dihydro-1H-pyrrolo[3,4-c]pyridin-1-one] |
| < 0.17 nM | CCCn1c(C)nnc1-c1cccc(N2Cc3c(cc(N(C)C(C)C)nc3CNC)C2=O)n1 [Example 64, 4-[(methylamino)methyl]-6-[methyl(propan-2-yl)amino]-2-[6-(5-methyl-4-propyl-4H-1,2,4-triazol-3-yl)pyridin-2-yl]-2,3-dihydro-1H-pyrrolo[3,4-c]pyridin-1-one] |

Each compound was assayed on phospho-SLP-76 (Ser376) in Jurkat cells (assay: Phospho-SLP-76 (Ser376) Homogeneous Time Resolved Fluorescence (HTRF) assay in Jurkat cells). Conditions: Homo sapiens, 30 min pre-treatment, anti-CD3 stimulation 15 min, HTRF, read-out: SLP76 Assay_IC50.
Assay type: cell-based
Procedure: Jurkat cells were seeded at 90,000 cells/well in 90 uL of RPMI1640 growth medium containing 10% FBS and incubated at 37° C. with 5% CO2 overnight. The following day, compounds were serially diluted from a 10 mM top dose for an 11-point 3 fold dilution curve in DMSO. Compounds were intermediately diluted 1:100 into growth media prior to diluting 1:10 on cells for final concentration 10 μM to 0.1 nM in 0.1% DMSO. After 30 minutes pre-treatment with compounds, the cells were stimulated using 200 μg/mL of F(ab)2 complexed anti-CD3 (clone UCTH1) for 15 min at 37° C. with 5% CO2. Stimulation was stopped with ice cold PBS and cells were harvested by centrifugation before lysis in Cisbio lysis buffer (Cisbio, Bedford, Mass.). Lysates were transferred to white, low-volume plates containing anti-phospho-SLP-76-Cryptate plus anti-phospho-SLP-76-d2 HTRF antibodies and incubated overnight at room temperature protected from light according to the manufacturer's protocol (Cisbio, Bedford, Mass.). HTRF was measured on a Perkin Elmer Envision and IC50 values were calculated by concentration-response curve fitting utilizing four-parameter nonlinear regression analyses.

| IC50 | Structure (SMILES) |
| --- | --- |
| 137 nM | CNCc1nc(C2CC2)cc2c1CN(c1cccc(N3C(=O)OC[C@@H]3C)n1)C2=O [Example 40, 6-cyclopropyl-4-[(methylamino)methyl]-2-{6-[(4S)-4-methyl-2-oxo-1,3-oxazolidin-3-yl]pyridin-2-yl}-2,3-dihydro-1H-pyrrolo[3,4-c]pyridin-1-one] |
| 42 nM | CCCn1c(C)nnc1-c1cccc(N2Cc3c(cc(N4CCC[C@H]4C)nc3CNC)C2=O)n1 [Example 62, 4-[(methylamino)methyl]-2-[6-(5-methyl-4-propyl-4H-1,2,4-triazol-3-yl)pyridin-2-yl]-6-[(2R)-2-methylpyrrolidin-1-yl]-2,3-dihydro-1H-pyrrolo[3,4-c]pyridin-1-one] |
| 488 nM | CNCc1nc(NC)cc2c1CN(c1cccc(-c3nncn3C(C)C)n1)C2=O [Example 24] |
| 134 nM | CNCc1nc(N2CCCC2)cc2c1CN(c1cccc(-c3nncn3[C@@H](C)CC(F)(F)F)n1)C2=O [Example 15, 4-[(methylamino)methyl]-6-(pyrrolidin-1-yl)-2-(6-{4-[(2S)-4,4,4-trifluorobutan-2-yl]-4H-1,2,4-triazol-3-yl}pyridin-2-yl)-2,3-dihydro-1H-pyrrolo[3,4-c]pyridin-1-one] |

Same assay, conditions: Homo sapiens, Phospho-SLP-76 (Ser376) HTRF, anti-CD3 stimulation, read-out: SLP76 Assay_IC50

| IC50 | Structure (SMILES) |
| --- | --- |
| 104 nM | CCC(CC)n1cnnc1-c1cccc(N2Cc3c(cc(N4[C@H](C)CC[C@H]4C)nc3CN)C2=O)n1 [Example 119, 4-(aminomethyl)-6-[(2R,5R)-2,5-dimethylpyrrolidin-1-yl]-2-{6-[4-(pentan-3-yl)-4H-1,2,4-triazol-3-yl]pyridin-2-yl}-2,3-dihydro-1H-pyrrolo[3,4-c]pyridin-1-one] |
| 65 nM | Cc1nnc(-c2cccc(N3Cc4c(cc(N5CCCC5(C)C)nc4CN)C3=O)n2)n1C(C)C [Example 164] |
| 62 nM | CCn1c(C)nnc1-c1cccc(N2Cc3c(cc(N4CCC[C@H]4C)nc3CNC)C2=O)n1 [Example 121, 2-[6-(4-ethyl-5-methyl-4H-1,2,4-triazol-3-yl)pyridin-2-yl]-4-[(methylamino)methyl]-6-[(2R)-2-methylpyrrolidin-1-yl]-2,3-dihydro-1H-pyrrolo[3,4-c]pyridin-1-one] |
| 232 nM | CCCn1c(C)nnc1-c1cccc(N2Cc3c(cc(N4CCC[C@H]4C)nc3CN)C2=O)n1 [Example 133, 4-(aminomethyl)-2-[6-(5-methyl-4-propyl-4H-1,2,4-triazol-3-yl)pyridin-2-yl]-6-[(2R)-2-methylpyrrolidin-1-yl]-2,3-dihydro-1H-pyrrolo[3,4-c]pyridin-1-one] |
| 112 nM | CCCn1c(C)nnc1-c1cccc(N2Cc3c(cc(N4CCC[C@@H]4C)nc3CN)C2=O)n1 [Example 159] |
| 53 nM | CCCn1c(C)nnc1-c1cccc(N2Cc3c(cc(N4CCC[C@@H]4C)nc3CNC)C2=O)n1 [Example 134, 4-[(methylamino)methyl]-2-[6-(5-methyl-4-propyl-4H-1,2,4-triazol-3-yl)pyridin-2-yl]-6-[(2S)-2-methylpyrrolidin-1-yl]-2,3-dihydro-1H-pyrrolo[3,4-c]pyridin-1-one] |
